Experimental data from patent US6187802A, “Substituted 4-arylmethylene-2-imino-2,3-dihydrothiazoles and derivatives and their pharmaceutical use” (Knoll Aktiengesellschaft, priority 1997, dated 2001).
Counter-ions that a name gives are not always drawn.

Tests used:
[1] = target: T1, noradrenaline (NA) reuptake sites (Rattus norvegicus, UniProt Q63380); test: displacement of [3H]nisoxetine from noradrenaline reuptake sites, frontal cortical membranes; settings: 10^-6 M test compound, [3H]nisoxetine 0.6 nM, one test only, read-out: NA uptake (% displacement of specific binding of tritiated ligand)
T1 construct: Frontal cortical tissue from the brains of male Sprague-Dawley rats; from tissue; host or cells: rat brain frontal cortex (crude synaptosomes in A3, washed membranes in A6)
T1 sequence (Q63380 1-617): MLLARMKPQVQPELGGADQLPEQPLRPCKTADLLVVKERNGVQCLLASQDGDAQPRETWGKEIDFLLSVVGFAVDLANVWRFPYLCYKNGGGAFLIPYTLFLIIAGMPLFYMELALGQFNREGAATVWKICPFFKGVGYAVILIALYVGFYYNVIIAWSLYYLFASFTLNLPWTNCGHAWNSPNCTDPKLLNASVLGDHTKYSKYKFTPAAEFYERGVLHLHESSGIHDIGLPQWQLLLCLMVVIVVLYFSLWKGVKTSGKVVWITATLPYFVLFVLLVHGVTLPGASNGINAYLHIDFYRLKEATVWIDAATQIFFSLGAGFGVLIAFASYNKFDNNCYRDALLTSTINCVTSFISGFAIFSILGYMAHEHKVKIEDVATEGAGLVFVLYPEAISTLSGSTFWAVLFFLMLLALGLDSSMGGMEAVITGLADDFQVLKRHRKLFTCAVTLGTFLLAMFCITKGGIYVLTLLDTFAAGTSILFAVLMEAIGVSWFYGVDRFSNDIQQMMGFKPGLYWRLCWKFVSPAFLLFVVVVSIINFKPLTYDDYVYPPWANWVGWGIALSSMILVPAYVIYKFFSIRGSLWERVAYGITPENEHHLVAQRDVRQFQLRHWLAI
Experimental: Frontal cortical tissue from the brains of male Charles River rats weighing 150-250 g was homogenised in ice-cold 50 mM Tris-HCl, pH 7.4 (at 25° C.) containing 120 mM sodium chloride and 5 mM potassium chloride (Tris buffer; 1:60 w/v) using a Kinematic polytron (speed setting 6 for 30 seconds) and centrifuged at 40,000 g for 10 minutes. The supernatant was discarded and the pellet rehomogenised in Tris buffer, 1:60 w/v, and centrifuged at 40,000 g for 10 minutes. This step was repeated twice more so that, in total, the brain tissue was homogenised and centrifuged four times. The final pellet was resuspended in 50 mM Tris-HCl, pH 7.4 containing 300 mM sodium chloride and 5 mM potassium chloride (equivalent to 25 mg wet weight of tissue/ml) and used immediately in the binding assay. All centrifugations were performed at 4° C.
Membranes (400 μl; equivalent to 10 mg wet weight of tissue/tube) were incubated with 50 μl [^3 H]nisoxetine at a single concentration of 0.6 nM and 50 μl of distilled water (total binding) or 50 μl of test compound (10^-6 M) or 50 μl of mazindol (1 μM; non-specific binding) for 4 h at 4° C.
Membrane bound radioactivity was recovered by filtration under vacuum through Skatron 11734 filters using a Skatron cell harvester. Filters were rapidly washed with ice-cold 50 mM Tris-HCl, pH 7.4 containing 120 mM sodium chloride and 5 mM potassium chloride (wash setting 9,9,0) and radioactivity determined by liquid scintillation counting (1 ml Packard MV Gold scintillator).
(§1) For each of these tests measuring the ability of compounds of Formula I to displace standard ligands from dopamine (DA), 5-hydroxytryptamine (5-HT) and noradrenaline (NA) reuptake sites in vitro, the percentage displacement of specific binding of tritiated ligand by 10^-6 M test compound was calculated in the following way:
(§2) Firstly, specific binding of tritiated ligand in the absence (A) and presence (B) of test compound was determined:
(§3) In the absence of compound:
(§4) A (dpm)=Total binding (dpm)-Non-specific binding (dpm)
(§5) In the presence of compound (10^-6 M):
(§6) B (dpm)=Binding at 10^-6 M (dpm)-Non-specific binding (dpm)
(§7) The specific binding of tritiated ligand in the presence (B) of compound was then converted to a percentage of specific binding of tritiated ligand in the absence (A) of compound:
(§8) % Specific binding at 10^-6 M=B (dpm)/A(dpm)×100
(§9) The percentage displacement of specific binding of trtiated ligand by the test compound (10^-6 M) was then obtained by subtraction of the percentage specific binding in the presence of compound from the percentage specific binding in the absence of compound, which is taken as the maximum binding and so equals 100%:
(§10) % Displacement at 10^-6 M=100-% Specific binding at 10^-6 M.
(§11) The values given below in Table 2 for examples 6 to 76 are % displacement of specific binding of tritiated ligand by 10^-6 M test compound and represent results from one test only. IA refers to <50% displacement.

[2] = target: T2, dopamine (DA) reuptake sites (Rattus norvegicus, UniProt P23977); test: displacement of [3H]GBR 12935 from dopamine reuptake sites, striatal membranes; type: binding; settings: 10^-6 M test compound, [3H]GBR 12935 1 nM, one test only, read-out: DA uptake (% displacement of specific binding of tritiated ligand)
T2 construct: Striatal tissue from the brains of male Charles River rats weighing 150-250 g; from tissue; host or cells: rat brain striatum (crude synaptosomes in A1, washed membranes in A4)
T2 sequence (P23977 whole entry): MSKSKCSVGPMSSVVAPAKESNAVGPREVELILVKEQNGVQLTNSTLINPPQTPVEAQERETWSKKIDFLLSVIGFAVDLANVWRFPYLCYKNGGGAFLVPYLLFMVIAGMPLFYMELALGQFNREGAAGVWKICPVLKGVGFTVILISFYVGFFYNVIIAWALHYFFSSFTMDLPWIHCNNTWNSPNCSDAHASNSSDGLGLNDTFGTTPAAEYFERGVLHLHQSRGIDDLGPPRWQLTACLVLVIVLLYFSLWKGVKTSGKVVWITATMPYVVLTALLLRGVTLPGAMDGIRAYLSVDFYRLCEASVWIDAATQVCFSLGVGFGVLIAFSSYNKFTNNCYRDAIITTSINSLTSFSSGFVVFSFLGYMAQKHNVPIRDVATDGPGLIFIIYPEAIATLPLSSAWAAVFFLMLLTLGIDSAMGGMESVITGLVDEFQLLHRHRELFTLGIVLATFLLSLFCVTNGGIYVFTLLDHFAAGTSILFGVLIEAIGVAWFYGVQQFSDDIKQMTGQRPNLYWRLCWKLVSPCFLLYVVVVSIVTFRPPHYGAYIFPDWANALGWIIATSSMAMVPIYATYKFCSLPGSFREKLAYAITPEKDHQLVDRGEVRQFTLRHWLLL
Experimental: Striatal tissue from the brains of male Charles River rats weighing 150-250 g was homogenised in ice-cold 0.32M sucrose (1:80 w/v) using a motor driven teflon pestle (12 strokes, 800 rpm) and centrifuged at 1000 g for 12 minutes. The supernatant was stored on ice and the pellet was resuspended in 0.32M sucrose (1:80 w/v) and centrifuged at 850 g for 10 minutes. Combined supernatants were diluted to 1:320 w/v with ice-cold 50 mM Tris-HCl, pH 7.4 (at 25° C.) containing 200 mM sodium chloride and 5 mM potassium chloride (Tris buffer) and centrifuged at 40,000 g for 10 minutes. The resulting pellet was resuspended in 10 ml of 50 mM Tris buffer, incubated at 37° C. for 10 min, diluted in 50 mM Tris buffer (1:320 w/v) and recentrifuged at 40,000 g for 10 minutes. The final pellet was resuspended in 50 mM Tris buffer (equivalent to 1.25 mg wet weight of tissue/ml) and used immediately in the binding assay. All centrifugations were carried out at 4° C.
Membranes (800 μl; equivalent to 1 mg wet weight of tissue/tube) were incubated with 100 μl [^3 H]GBR 12935 at a single concentration of 1 nM and 100 μl of distilled water (total binding) or 100 μl of test compound (10^-6 M) or 100 μl of mazindol (1 μM; non-specific binding) for 90 min at 4° C.
Membrane bound radioactivity was recovered by filtration under vacuum through Whatman GF/C filters, pre-soaked for 1 h in 0.5% polyethylenimine,using a Brandel cell harvester. Filters were rapidly washed with 16 ml of ice-cold 50 mM Tris-HCl, pH 7.4 and radioactivity determined by liquid scintillation counting (2 ml Packard MV Gold scintillator).
as §1, §2, §3, §4, §5, §6, §7, §8, §9, §10, §11

[3] = target: T3, 5-hydroxytryptamine (5-HT) reuptake sites (Rattus norvegicus, UniProt P31652); test: displacement of [3H]paroxetine from 5-HT reuptake sites, frontal cortical membranes; type: binding; settings: 10^-6 M test compound, [3H]paroxetine 30 pM, one test only, read-out: 5-HT uptake (% displacement of specific binding of tritiated ligand)
T3 construct: Frontal cortical tissue from the brains of male Sprague-Dawley rats; from tissue; host or cells: rat brain frontal cortex (crude synaptosomes in A2, washed membranes in A5)
T3 sequence (P31652 whole entry): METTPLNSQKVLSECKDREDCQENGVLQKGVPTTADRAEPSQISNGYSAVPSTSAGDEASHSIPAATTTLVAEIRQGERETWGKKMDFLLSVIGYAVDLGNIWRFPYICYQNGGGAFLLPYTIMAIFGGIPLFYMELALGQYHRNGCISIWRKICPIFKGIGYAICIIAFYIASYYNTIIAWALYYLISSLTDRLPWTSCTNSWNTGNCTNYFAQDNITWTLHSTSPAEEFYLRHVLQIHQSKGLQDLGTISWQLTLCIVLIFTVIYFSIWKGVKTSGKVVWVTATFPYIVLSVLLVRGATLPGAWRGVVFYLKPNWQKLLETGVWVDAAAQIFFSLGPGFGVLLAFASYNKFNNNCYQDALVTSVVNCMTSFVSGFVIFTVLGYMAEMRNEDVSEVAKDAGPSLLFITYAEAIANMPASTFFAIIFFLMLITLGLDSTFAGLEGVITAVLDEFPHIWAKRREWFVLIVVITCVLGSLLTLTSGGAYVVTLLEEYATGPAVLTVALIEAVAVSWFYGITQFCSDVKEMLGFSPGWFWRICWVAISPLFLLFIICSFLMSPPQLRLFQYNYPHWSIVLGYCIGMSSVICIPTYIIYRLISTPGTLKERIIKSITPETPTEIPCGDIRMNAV
Experimental: Frontal cortical tissue from the brains of male Charles River rats weighing 150-250 g was homogenised in ice-cold 0.25M sucrose (1:30 w/v) using a Kinematic polytron (speed setting 6 for 30 seconds) and centrifuged at 1000 g for 12 minutes. The supernatant was stored on ice and the pellet was resuspended in 0.25M sucrose (1:20 w/v) and centrifuged at 850 g for 10 minutes. Combined supernatants were diluted to 1:100 w/v with ice-cold 50 mM Tris-HCl, pH 7.5 (at 25° C.) containing 120 mM sodium chloride and 5 mM potassium chloride (Tris buffer) and centrifuged at 40,000 g for 10 minutes. The resulting pellet was resuspended in 50 mM Tris buffer (1:100 w/v) and recentrifuged at 40,000 g for 10 minutes. The final pellet was resuspended in 50 mM Tris buffer (equivalent to 2 mg wet weight of tissue/ml) and used immediately in the binding assay. All centrifugations were carried out at 4° C.
Membranes (1000 μl; equivalent to 2 mg wet weight of tissue/tube) were incubated with 200 μl [^3 H]paroxetine at a single concentration of 30 pM and 200 μl of distilled water (total binding) or 200 μl of test compound (10^-6 M) or 200 μl of citalopram (1 μM; non-specific binding) for 2 h at 22° C.
Membrane bound radioactivity was recovered by filtration under vacuum through Whatman GFIC filters using a Brandel cell harvester. Filters were rapidly washed with 16 ml ice-cold 50 mM Tris buffer and radioactivity determined by liquid scintillation counting (2 ml Packard MV Gold scintillator).
as §1, §2, §3, §4, §5, §6, §7, §8, §9, §10, §11

`COc1ccc(CCN=c2scc(C3(c4ccc(Cl)cc4)CCCC3)n2CCc2ccc(OC)c(OC)c2)cc1OC` [Example 67, 4-[1-(4-Chlorophenyl)cyclopentyl]-3-(3,4-dimethoxyphenethyl)-2-(3,4-dimethoxyphenethylimino)-2,3-dihydrothiazole hydrobromide] gave an inhibition at 1 µM [1] of less than 50%, an inhibition at 1 µM [2] of 88% and an inhibition at 1 µM [3] of less than 50%.

`CN=c1scc(C2(c3ccc4ccccc4c3)CCC2)n1C` [Example 36, 3-Methyl-2-methylimino-4-[1-(2-naphthyl)cyclobutyl]-2,3-dihydrothiazole hydrobromide] was tested, and the inhibition at 1 µM [1] was 101%, the inhibition at 1 µM [2] was 108% and the inhibition at 1 µM [3] was 101%.

`C1=C(C2(c3ccc4ccccc4c3)CCC2)N2CCCN=C2S1` [Example 34, 3-[1-(2-Naphthyl)cyclobutyl]-6,7-dihydro-5H-thiazolo[3,2-a]pyrimidine hydrobromide] showed an inhibition at 1 µM [1] of 110%, an inhibition at 1 µM [2] of 109% and an inhibition at 1 µM [3] of 100%.

`Clc1ccc(C2(c3csc(=NCC4CC4)n3CC3CC3)CCC2)cc1Cl` [Example 21, 4-[1-(3,4-Dichlorophenyl)cyclobutyl]-3-cyclopropylmethyl-2-cyclopropylmethylimino-2,3-dihydrothiazole hydrobromide] was tested, and the inhibition at 1 µM [1] was 50%, the inhibition at 1 µM [2] was 108% and the inhibition at 1 µM [3] was 103%.

With `Clc1ccc(C2(c3csc(=NCCc4ccccc4)n3CCc3ccccc3)CCC2)cc1` [Example 64, 4-[1-(4-Chlorophenyl)cyclobutyl]-3-phenethyl-2-phenethylimino-2,3-dihydrothiazole hydrobromide] the inhibition at 1 µM [1] was less than 50%, the inhibition at 1 µM [2] was 102% and the inhibition at 1 µM [3] was less than 50%.

`COc1ccc(CCN=c2scc(C3(c4ccc5ccccc5c4)CCC3)n2CCc2ccc(OC)c(OC)c2)cc1OC` [Example 55, 3-(3,4-Dimethoxyphenethyl)-2-(3,4-dimethoxyphenethylimino)-4-[1-(2-naphthyl)cyclobutyl]-2,3-dihydrothiazole hydrobromide] was tested, and the inhibition at 1 µM [1] was less than 50%, the inhibition at 1 µM [2] was 91% and the inhibition at 1 µM [3] was less than 50%.

In the case of `Cc1ccccc1N=c1scc(C2(c3ccc(Cl)c(Cl)c3)CCC2)n1-c1ccccc1C` [Example 29, 4-[1-(3,4-Dichlorophenyl)cyclobutyl]-3-(o-tolyl)-2-(o-tolylimino)-2,3-dihydrothiazole hydrobromide], the inhibition at 1 µM [1] is reported as less than 50%, the inhibition at 1 µM [2] is reported as 74% and the inhibition at 1 µM [3] is reported as less than 50%.

`c1cncc(CN=c2scc(C3(c4ccc5ccccc5c4)CCC3)n2Cc2cccnc2)c1` [Example 47, 4-[1-(2-Naphthyl)cyclobutyl]-3-(3-pyridylmethyl)-2-(3-pyridylmethylimino)-2,3-dihydrothiazole hydrobromide] was tested, and the inhibition at 1 µM [1] was 92%, the inhibition at 1 µM [2] was 109% and the inhibition at 1 µM [3] was 99%.

With `Clc1ccc(C2(C3=CSC4=NCCN34)CCCC2)cc1` [Example 71, 3-[1-(4-Chlorophenyl)cyclopentyl]-5,6-dihydroimidazo[2,1-b]thiazole hydrobromide] the inhibition at 1 µM [1] was 76%, the inhibition at 1 µM [2] was 96% and the inhibition at 1 µM [3] was less than 50%.

For `CC(C)CN=c1scc(C2(c3ccc(Cl)c(Cl)c3)CCC2)n1CC(C)C` [Example 19, 4-[1-(3,4-Dichlorophenyl)cyclobutyl]-3-isobutyl-2-isobutylimino-2,3-dihydrothiazole hydrobromide], the inhibition at 1 µM [1] was less than 50%, the inhibition at 1 µM [2] was 107% and the inhibition at 1 µM [3] was 89%.

`CC(C)N=c1scc(C2(c3ccc(Cl)c(Cl)c3)CCC2)n1C(C)C` [Example 17, 4-[1-(3,4-Dichlorophenyl)cyclobutyl]-3-isopropyl-2-isopropylimino-2,3-dihydrothiazole hydrobromide] was tested, and the inhibition at 1 µM [1] was 63%, the inhibition at 1 µM [2] was 112% and the inhibition at 1 µM [3] was 95%.

Compound `C1=C(C2(c3cc4ccccc4s3)CCC2)N2CCN=C2S1` [Example 12, 3-[1-(benzo[b]thiophen-2-yl)cyclobutyl]-5,6-dihydroimidazo[2,1-b]thiazole hydrobromide] has an inhibition at 1 µM [1] of 95%, an inhibition at 1 µM [2] of 121% and an inhibition at 1 µM [3] of 77%.

Compound `CCOc1ccc(N=c2scc(C3(c4ccc5ccccc5c4)CCC3)n2-c2ccc(OCC)cc2)cc1` [Example 54, 3-(4-Ethoxyphenyl)-2-(4-ethoxyphenylimino)-4-[1-(2-naphthyl)cyclobutyl]-2,3-dihydrothiazole hydrobromide] has an inhibition at 1 µM [1] of less than 50%, an inhibition at 1 µM [2] of 69% and an inhibition at 1 µM [3] of less than 50%.

Work on `CN=c1scc(C2(c3ccc(Cl)c(Cl)c3)CCC2)n1C` [Example 14, 4-[1-(3,4-Dichlorophenyl)cyclobutyl]-3-methyl-2-methylimino-2,3 dihydrothiazole hydrobromide] yielded an inhibition at 1 µM [1] of 80%, an inhibition at 1 µM [2] of 103% and an inhibition at 1 µM [3] of 96%.

In the case of `Brc1ccc(C2(C3=CSC4=NCCN34)CCC2)cc1` [Example 70, 3-[1-(4-Bromophenyl)cyclobutyl]-5,6-dihydroimidazo[2,1-b]thiazole hydrobromide], the inhibition at 1 µM [1] is reported as 52%, the inhibition at 1 µM [2] is reported as 80% and the inhibition at 1 µM [3] is reported as less than 50%.

Compound `Clc1ccc(C2(c3csc(=NCc4cccnc4)n3Cc3cccnc3)CCC2)cc1Cl` [Example 25, 4-[1-(3,4-Dichlorophenyl)cyclobutyl]-3-(3-pyridylmethyl)-2-(3-pyridylmethylimino)-2,3-dihydrothiazole hydrobromide] has an inhibition at 1 µM [1] of 66%, an inhibition at 1 µM [2] of 108% and an inhibition at 1 µM [3] of 95%.
